Test results: PMC4850106 (Journal of medicinal chemistry, 2016)

Columns and labels:
[1] = In vitro human BBB cell-based model; assay type: in vitro ADME; conditions: human
[2] = system: brain-like endothelial cells cocultured with pericytes; test: In vitro human BBB cell-based model; assay type: in vitro ADME; conditions: cell-based BBB model, 200 µM, 2 h
BBB-PAMPA assay = assay type: in vitro ADME, porcine; conditions: 500 µM in donor, 4 h
neuropathic mice = conditions: neuropathic conditions ref 73; cited from earlier work
Sprague–Dawley rats = test: Respiratory effects by whole body plethysmography in rats; assay type: in vivo; conditions: iv, 13a 0.5 mg/kg, morphine 5 mg/kg
mice (C57BL6) = conditions: acute pain, increased dosing ref 73; cited from earlier work
human NOP = human NOP (Homo sapiens, UniProt P41146); conditions: read-out: Ki for the human NOP; cited from earlier work
human NOP, sequence (P41146 whole entry): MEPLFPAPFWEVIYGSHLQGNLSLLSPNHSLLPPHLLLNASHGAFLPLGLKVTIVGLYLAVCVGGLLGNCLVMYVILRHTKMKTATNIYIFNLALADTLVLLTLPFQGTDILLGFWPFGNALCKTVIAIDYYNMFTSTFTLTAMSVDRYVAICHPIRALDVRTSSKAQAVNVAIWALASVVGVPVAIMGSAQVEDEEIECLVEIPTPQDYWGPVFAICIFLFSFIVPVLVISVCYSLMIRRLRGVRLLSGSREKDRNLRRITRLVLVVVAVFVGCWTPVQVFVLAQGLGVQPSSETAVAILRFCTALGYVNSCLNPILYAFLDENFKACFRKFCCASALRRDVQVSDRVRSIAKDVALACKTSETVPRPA

CC[C@H](C)[C@H](NC(=O)[C@H](CCCN=C(N)N)NC(=O)[C@H](Cc1ccc(O)cc1)NC(=O)[C@H](Cc1ccc(O)cc1)NC(=O)[C@H](CCCN=C(N)N)NC(C)=O)C(=O)N[C@@H](CCCCN)C(N)=O [compound 8, Ac-Arg-Tyr-Tyr-Arg-Ile-Lys-NH2]
Papp A→B at 2 h, 200 µM [1]: 8.4 ×10⁻⁶ cm/s
mass balance (%) [2]: 95%
transport (%) [2]: 14%
transport (%) (BBB-PAMPA assay): 0.15%

CN1CC[C@]23c4c5ccc(O)c4O[C@H]2[C@@H](O)C=C[C@H]3[C@H]1C5 [morphine]
sustained %MPE no matter how high the dose (neuropathic mice): about 50 %MPE
inspiratory time (Sprague–Dawley rats): significant increase in inspiratory time
respiratory frequency (Sprague–Dawley rats): decrease in respiratory frequency
respiratory depression (ventilation minute) (Sprague–Dawley rats; vs saline, AUC): deleterious effect
%MPE in tail-flick test upon increased dosing (mice (C57BL6)): 100 %MPE

Ac-Arg-Tyr-Tyr-Arg-Trp-Arg-NH2 (Ac-RYYRWR-NH2)
Ki (human NOP): 100 pM
